Test results: BindingDB's records for doi:10.1111/cbdd.12663 (West China Hospital, 2016)

Columns and labels:
Assay in all cases: DPP-IV Inhibition Screening Assay
[1] = biological target: Dipeptidyl peptidase 8 (Homo sapiens, UniProt Q6V1X1)
Description: (§1) DPP-IV inhibition was measured by DPP-IV inhibitor screening assay kit (Cayman Chemical Company, Item No. 700210) following the manufacturer's instructions. Briefly, solutions of test compounds at varying concentrations were prepared in dimethyl sulfoxide (DMSO) and then diluted into assay buffer. Human recombinant DPP-IV was added to the dilutions and preincubated for 30 min at 37 °C before the reaction was initiated by the addition of fluorogenic substrate solution AMC (Gly-Pro-Aminomethylcoumarin). Human recombinant DPP-8 or DPP-9 was added to the dilutions and preincubated for 10 min at 22 °C before the reaction was initiated by the addition of fluorogenic DPP substrate. The kinetics of the reaction wasmonitored (excitation at 380 nm, emission at 460 nm).

[2] = biological target: Dipeptidyl peptidase 9 (Homo sapiens, UniProt Q86TI2)
Chain of Dipeptidyl peptidase 9 (Q86TI2 whole entry): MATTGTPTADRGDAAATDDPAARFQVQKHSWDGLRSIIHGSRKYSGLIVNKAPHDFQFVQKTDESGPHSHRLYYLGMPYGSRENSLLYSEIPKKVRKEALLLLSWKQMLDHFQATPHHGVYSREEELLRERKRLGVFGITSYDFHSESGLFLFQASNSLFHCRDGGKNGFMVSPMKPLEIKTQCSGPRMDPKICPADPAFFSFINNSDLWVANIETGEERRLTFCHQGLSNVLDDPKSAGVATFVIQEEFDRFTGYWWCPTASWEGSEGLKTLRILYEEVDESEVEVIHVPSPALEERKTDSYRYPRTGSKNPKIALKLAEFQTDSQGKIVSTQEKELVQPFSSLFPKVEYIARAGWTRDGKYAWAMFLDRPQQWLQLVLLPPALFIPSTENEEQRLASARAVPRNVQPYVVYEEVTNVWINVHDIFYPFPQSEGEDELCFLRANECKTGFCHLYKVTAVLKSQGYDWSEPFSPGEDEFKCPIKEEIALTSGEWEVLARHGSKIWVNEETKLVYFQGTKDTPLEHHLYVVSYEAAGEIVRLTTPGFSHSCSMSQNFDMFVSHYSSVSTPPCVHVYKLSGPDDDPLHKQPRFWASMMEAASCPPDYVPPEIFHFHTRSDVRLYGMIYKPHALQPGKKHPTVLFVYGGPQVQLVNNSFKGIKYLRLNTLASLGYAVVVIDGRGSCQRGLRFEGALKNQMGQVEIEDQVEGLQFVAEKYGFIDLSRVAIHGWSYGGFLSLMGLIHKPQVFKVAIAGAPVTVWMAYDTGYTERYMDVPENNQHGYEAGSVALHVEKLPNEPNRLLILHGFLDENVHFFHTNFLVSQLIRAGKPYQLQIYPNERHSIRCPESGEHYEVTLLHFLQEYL
Description: as §1

[3] = biological target: Dipeptidyl peptidase 4 [K6R,T557I] (Homo sapiens, UniProt P27487, K6R/T557I)
Chain of Dipeptidyl peptidase 4 [K6R,T557I] (P27487 whole entry K6R/T557I/D663E): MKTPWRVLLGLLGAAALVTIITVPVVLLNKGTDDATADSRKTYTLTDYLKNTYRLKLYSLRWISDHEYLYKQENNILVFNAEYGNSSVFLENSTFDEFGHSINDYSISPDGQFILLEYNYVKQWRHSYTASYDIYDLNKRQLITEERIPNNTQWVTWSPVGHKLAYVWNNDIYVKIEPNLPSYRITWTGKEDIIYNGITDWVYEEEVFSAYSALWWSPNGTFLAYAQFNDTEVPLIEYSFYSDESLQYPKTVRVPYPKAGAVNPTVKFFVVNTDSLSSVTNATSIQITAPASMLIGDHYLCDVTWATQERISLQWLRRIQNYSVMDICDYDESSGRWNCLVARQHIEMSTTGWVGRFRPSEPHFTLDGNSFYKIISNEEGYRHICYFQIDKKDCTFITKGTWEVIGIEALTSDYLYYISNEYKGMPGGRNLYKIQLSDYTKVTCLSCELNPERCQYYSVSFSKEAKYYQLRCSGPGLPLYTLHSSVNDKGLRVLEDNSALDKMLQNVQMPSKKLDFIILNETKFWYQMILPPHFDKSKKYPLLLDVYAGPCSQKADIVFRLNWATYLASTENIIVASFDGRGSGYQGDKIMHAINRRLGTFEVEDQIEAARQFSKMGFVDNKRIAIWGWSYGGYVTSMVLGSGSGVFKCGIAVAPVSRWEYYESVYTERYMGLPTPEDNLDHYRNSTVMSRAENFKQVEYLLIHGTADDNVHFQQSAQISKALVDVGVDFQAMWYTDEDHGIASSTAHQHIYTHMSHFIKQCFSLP
Description: as §1

Chain of Dipeptidyl peptidase 8 (Q6V1X1 whole entry): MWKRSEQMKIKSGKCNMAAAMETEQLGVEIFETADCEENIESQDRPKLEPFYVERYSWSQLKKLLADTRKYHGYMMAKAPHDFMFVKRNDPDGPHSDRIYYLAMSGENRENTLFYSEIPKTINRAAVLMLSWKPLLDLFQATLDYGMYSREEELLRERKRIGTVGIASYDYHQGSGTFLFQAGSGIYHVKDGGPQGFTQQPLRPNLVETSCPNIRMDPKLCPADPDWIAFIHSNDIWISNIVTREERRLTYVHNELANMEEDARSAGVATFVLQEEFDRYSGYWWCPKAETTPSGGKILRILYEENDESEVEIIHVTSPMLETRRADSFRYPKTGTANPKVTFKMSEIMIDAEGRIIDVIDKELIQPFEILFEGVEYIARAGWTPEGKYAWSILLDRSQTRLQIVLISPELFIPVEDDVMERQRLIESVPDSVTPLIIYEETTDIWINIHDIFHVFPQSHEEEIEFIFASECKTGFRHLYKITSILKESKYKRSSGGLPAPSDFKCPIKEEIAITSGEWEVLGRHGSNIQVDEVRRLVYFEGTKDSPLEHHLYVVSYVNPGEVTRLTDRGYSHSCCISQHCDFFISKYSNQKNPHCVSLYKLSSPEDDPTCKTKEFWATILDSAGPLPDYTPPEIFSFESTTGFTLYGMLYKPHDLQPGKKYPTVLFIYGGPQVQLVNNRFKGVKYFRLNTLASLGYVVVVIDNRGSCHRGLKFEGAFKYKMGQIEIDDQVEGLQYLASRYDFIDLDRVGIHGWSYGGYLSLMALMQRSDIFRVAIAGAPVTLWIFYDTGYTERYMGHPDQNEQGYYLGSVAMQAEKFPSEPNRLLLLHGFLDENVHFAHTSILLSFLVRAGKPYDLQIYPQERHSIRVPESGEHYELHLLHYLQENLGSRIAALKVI

IC50 [1] | IC50 [2] | IC50 [3] | SMILES
> 100 µM | > 100 µM | 23.5 nM | CC(C)=CCn1c(N2CCC[C@@H](N)C2)nc2c1c(=O)n(Cc1ccccc1C#N)c(=O)n2C [(R)-40]
> 100 µM | > 100 µM | 36.2 nM | CC(C)=CCn1c(N2CCC[C@@H](N)C2)nc2c1c(=O)n(Cc1nc3ccccc3s1)c(=O)n2C [(R)-43]
> 100 µM | > 100 µM | 108 nM | CC(C)=CCn1c(N2CCC[C@H](N)C2)nc2c1c(=O)n(Cc1ccccc1C#N)c(=O)n2C [(S)-40]
> 100 µM | > 100 µM | 36.9 nM | CC(C)=CCn1c(N2CCC[C@H](N)C2)nc2c1c(=O)n(Cc1nc3ccccc3s1)c(=O)n2C [(S)-43]
